Data reported in the NIST ThermoML archive (doi:10.1021/je200531k).
Numbers after ± are expanded uncertainties.

Details: Crystal; DTA

C=C(C)[C@@H]1CC[C@]2(C(=O)O)CC[C@]3(C)[C@H](CC[C@@H]4[C@@]5(C)CC[C@H](O)C(C)(C)[C@@H]5CC[C@]43C)[C@@H]12 [betulinic acid]
Normal melting temperature: 315.30 ± 0.5 °C
